Test results as given in patent US20230157952A1, “METHOD FOR IMPROVING THE STABILITY OF A PHARMACEUTICAL COMPOSITION COMPRISING A HIGH PENETRATION DRUG, AND THE PHARMACEUTICAL COMPOSITION OBTAINED THEREFROM” (Techfields Inc., priority 2020, published 2023).

Assays:
[1] = Effect of pH value on the stability of the solution (purity); type: physicochemical; conditions: 25° C.
[2] = Effect of temperature (and pH) on the stability of the solution (purity); type: physicochemical; conditions: 7% solution in water
[3] = Effect of concentration on the stability of the solution (purity over time); conditions: in water at 25° C.
[4] = day 0, pH 1.0, 7% in 25% ethanol
[5] = day 0, pH 2.0, 7% in 25% ethanol
[6] = day 0, pH 3.0, 7% in 25% ethanol
[7] = day 0, pH 3.7, 7% in 25% ethanol
[8] = day 0, pH 4.0, 7% in 25% ethanol
[9] = day 0, pH 4.3, 7% in 25% ethanol
[10] = day 0, pH 4.6, 7% in 25% ethanol
[11] = day 0, pH 5.0, 7% in 25% ethanol
[12] = day 0, pH 6.0, 7% in 25% ethanol
[13] = day 0, pH 7.0, 7% in 25% ethanol
[14] = day 0, pH 8.0, 7% in 25% ethanol
[15] = day 28, pH 1.0, 7% in 25% ethanol
[16] = day 28, pH 2.0, 7% in 25% ethanol
[17] = day 28, pH 3.0, 7% in 25% ethanol
[18] = day 28, pH 3.7, 7% in 25% ethanol
[19] = day 28, pH 4.0, 7% in 25% ethanol
[20] = day 28, pH 4.3, 7% in 25% ethanol
[21] = day 28, pH 4.6, 7% in 25% ethanol
[22] = day 28, pH 5.0, 7% in 25% ethanol
[23] = day 28, pH 6.0, 7% in 25% ethanol
[24] = day 28, pH 7.0, 7% in 25% ethanol
[25] = day 28, pH 8.0, 7% in 25% ethanol

CC(C)Cc1ccc([C@@H](C)C(=O)OCCC2CCNCC2)cc1.Cl (racemic) [C-8, 4-piperidineethyl (R,S)-2-(p-isobutylphenyl)propionate•HCl salt]
Purity(%) from day 0-28 [1, 4]: 97.6 ± 0.4% | Purity(%) from day 0-28 [1, 5]: 98.0 ± 0.3% | Purity(%) from day 0-28 [1, 6]: 98.1 ± 0.2% | Purity(%) from day 0-28 [1, 7]: 98.3 ± 0.3% | Purity(%) from day 0-28 [1, 8]: 98.4 ± 0.3% | Purity(%) from day 0-28 [1, 9]: 98.4 ± 0.2% | Purity(%) from day 0-28 [1, 10]: 98.3 ± 0.2% | Purity(%) from day 0-28 [1, 11]: 98.3 ± 0.4% | Purity(%) from day 0-28 [1, 12]: 98.2 ± 0.3% | Purity(%) from day 0-28 [1, 13]: 97.9 ± 0.3% | Purity(%) from day 0-28 [1, 14]: 97.6 ± 0.5% | Purity(%) from day 0-28 [1, 15]: 68.4 ± 0.4% | Purity(%) from day 0-28 [1, 16]: 87.3 ± 0.3% | Purity(%) from day 0-28 [1, 17]: 87.3 ± 0.3% | Purity(%) from day 0-28 [1, 18]: 95.0 ± 0.2% | Purity(%) from day 0-28 [1, 19]: 96.1 ± 0.3% | Purity(%) from day 0-28 [1, 20]: 96.3 ± 0.3% | Purity(%) from day 0-28 [1, 21]: 96.3 ± 0.2% | Purity(%) from day 0-28 [1, 22]: 89.7 ± 0.3% | Purity(%) from day 0-28 [1, 23]: 87.3 ± 0.3% | Purity(%) from day 0-28 [1, 24]: 48.3 ± 0.4% | Purity(%) from day 0-28 [1, 25]: 34.2 ± 0.3%

CC(C)Cc1ccc([C@@H](C)C(=O)OCCN2CCCC2)cc1.Cl (racemic) [C-9, 1-pyrrolidineethyl (R,S)-2-(p-isobutylphenyl)propionate•HCl salt]
Purity(%) from day 0-28 [1, 4]: 98.0 ± 0.3% | Purity(%) from day 0-28 [1, 5]: 98.2 ± 0.4% | Purity(%) from day 0-28 [1, 6]: 98.5 ± 0.3% | Purity(%) from day 0-28 [1, 7]: 98.6 ± 0.4% | Purity(%) from day 0-28 [1, 8]: 98.6 ± 0.3% | Purity(%) from day 0-28 [1, 9]: 98.7 ± 0.2% | Purity(%) from day 0-28 [1, 10]: 98.6 ± 0.3% | Purity(%) from day 0-28 [1, 11]: 98.5 ± 0.4% | Purity(%) from day 0-28 [1, 12]: 98.4 ± 0.5% | Purity(%) from day 0-28 [1, 13]: 98.1 ± 0.5% | Purity(%) from day 0-28 [1, 14]: 97.9 ± 0.5% | Purity(%) from day 0-28 [1, 15]: 68.3 ± 0.2% | Purity(%) from day 0-28 [1, 16]: 87.7 ± 0.3% | Purity(%) from day 0-28 [1, 17]: 87.7 ± 0.2% | Purity(%) from day 0-28 [1, 18]: 95.5 ± 0.3% | Purity(%) from day 0-28 [1, 19]: 96.3 ± 0.3% | Purity(%) from day 0-28 [1, 20]: 96.4 ± 0.2% | Purity(%) from day 0-28 [1, 21]: 96.4 ± 0.3% | Purity(%) from day 0-28 [1, 22]: 88.6 ± 0.3% | Purity(%) from day 0-28 [1, 23]: 89.0 ± 0.4% | Purity(%) from day 0-28 [1, 24]: 48.1 ± 0.3% | Purity(%) from day 0-28 [1, 25]: 34.4 ± 0.4%

CCN(CC)CCOC(=O)CC1=C(C)C(=Cc2ccc([S+](C)[O-])cc2)c2ccc(F)cc21.Cl (stereo not shown) [2-(diethylamino)ethyl 5-fluoro-2-methyl-1-[[4-(methylsulfinyl)phenyl]methylene]-1H-indene-3-acetate•HCl]
Stability of the solution at a temperature higher than 40° C. and a pH lower than 3 or greater than 6 [2]: not stable | Purity at Day 3 ([3]; 0.01 wt %): 82.3% | Purity at Day 7 ([3]; 0.01 wt %): 71.2% | Purity at Day 14 ([3]; 0.01 wt %): 59.4% | Purity at Day 21 ([3]; 0.01 wt %): 50.4% | Purity at Day 28 ([3]; 0.01 wt %): 43.7% | Purity at hr 0 ([3]; 0.01 wt %): 97.1% | Purity at Day 3 ([3]; 0.1 wt %): 95.7% | Purity at Day 7 ([3]; 0.1 wt %): 93.6% | Purity at Day 14 ([3]; 0.1 wt %): 89.8% | Purity at Day 21 ([3]; 0.1 wt %): 84.4% | Purity at Day 28 ([3]; 0.1 wt %): 78.9% | Purity at hr 0 ([3]; 0.1 wt %): 97.2% | Purity at Day 3 ([3]; 1 wt %): 96.2% | Purity at Day 7 ([3]; 1 wt %): 95.2% | Purity at Day 14 ([3]; 1 wt %): 93.1% | Purity at Day 21 ([3]; 1 wt %): 91.5% | Purity at Day 28 ([3]; 1 wt %): 90.1% | Purity at hr 0 ([3]; 1 wt %): 97.3% | Purity at Day 3 ([3]; 3 wt %): 96.7% | Purity at Day 7 ([3]; 3 wt %): 96.3% | Purity at Day 14 ([3]; 3 wt %): 95.0% | Purity at Day 21 ([3]; 3 wt %): 94.1% | Purity at Day 28 ([3]; 3 wt %): 93.1% | Purity at hr 0 ([3]; 3 wt %): 97.3% | Purity at Day 3 ([3]; 5 wt %): 97.3% | Purity at Day 7 ([3]; 5 wt %): 97.1% | Purity at Day 14 ([3]; 5 wt %): 96.7% | Purity at Day 21 ([3]; 5 wt %): 96.2% | Purity at Day 28 ([3]; 5 wt %): 95.4% | Purity at hr 0 ([3]; 5 wt %): 97.5% | Purity at Day 3 ([3]; 7 wt %): 97.4% | Purity at Day 7 ([3]; 7 wt %): 97.3% | Purity at Day 14 ([3]; 7 wt %): 97.1% | Purity at Day 21 ([3]; 7 wt %): 96.6% | Purity at Day 28 ([3]; 7 wt %): 96.4% | Purity at hr 0 ([3]; 7 wt %): 97.6% | Purity at Day 3 ([3]; 8 wt %): 97.4% | Purity at Day 7 ([3]; 8 wt %): 97.2% | Purity at Day 14 ([3]; 8 wt %): 96.9% | Purity at Day 21 ([3]; 8 wt %): 96.8% | Purity at Day 28 ([3]; 8 wt %): 96.5% | Purity at hr 0 ([3]; 8 wt %): 97.5% | Purity at Day 3 ([3]; 10 wt %): 97.5% | Purity at Day 7 ([3]; 10 wt %): 97.3% | Purity at Day 14 ([3]; 10 wt %): 97.0% | Purity at Day 21 ([3]; 10 wt %): 97.0% | Purity at Day 28 ([3]; 10 wt %): 96.7% | Purity at hr 0 ([3]; 10 wt %): 97.5% | Purity at Day 3 ([3]; 15 wt %): 97.4% | Purity at Day 7 ([3]; 15 wt %): 97.4% | Purity at Day 14 ([3]; 15 wt %): 97.1% | Purity at Day 21 ([3]; 15 wt %): 97.1% | Purity at Day 28 ([3]; 15 wt %): 96.8% | Purity at hr 0 ([3]; 15 wt %): 97.6% | Purity at Day 3 ([3]; 20 wt %): 97.4% | Purity at Day 7 ([3]; 20 wt %): 97.6% | Purity at Day 14 ([3]; 20 wt %): 97.2% | Purity at Day 21 ([3]; 20 wt %): 97.1% | Purity at Day 28 ([3]; 20 wt %): 96.8% | Purity at hr 0 ([3]; 20 wt %): 97.6% | Purity at Day 3 ([3]; 30 wt %): 97.5% | Purity at Day 7 ([3]; 30 wt %): 97.5% | Purity at Day 14 ([3]; 30 wt %): 97.3% | Purity at Day 21 ([3]; 30 wt %): 97.0% | Purity at Day 28 ([3]; 30 wt %): 96.7% | Purity at hr 0 ([3]; 30 wt %): 97.7% | Purity at Day 3 ([3]; 50 wt %): 97.5% | Purity at Day 7 ([3]; 50 wt %): 97.5% | Purity at Day 14 ([3]; 50 wt %): 97.2% | Purity at Day 21 ([3]; 50 wt %): 96.8% | Purity at Day 28 ([3]; 50 wt %): 96.8% | Purity at hr 0 ([3]; 50 wt %): 97.7% | Stability when the concentration is 0.1% or lower [3]: not stable
